Measured values taken from US9101567B2, “Suppression of cancer growth and metastasis using nordihydroguaiaretic acid derivatives with 7-hydroxystaurosporine” (The Johns Hopkins University, priority 2010, dated 2015).
Several values for one entry are separate records, joined by “and”; a condition that tells them apart may be missing. Equal values may be shown once.

How the values were obtained:
[1] = tested on: caspase-7; test: Western blotting of caspase-7 cleavage in LNCaP cells; type: cell-based, human; conditions: 17 hrs, M4N 80 μM, etoposide 10 μM, rapamycin 10 μM, UCN-01 2 μM
Experimental: (§1) The sample volumes were adjusted by the total protein amount. Protein assay was performed by Bio-Rad Protein Assay (Bio-Rad Laboratories, Inc. Hercules, Calif.). The samples were resolved by the standard SDS-polyacrylamide gel electrophoresis and transferred to nitrocellulose membrane (Amersham Biosciences, Bjorkgatan, Sweden). The membranes were blocked with skim milk, and incubated with primary antibodies at 4° C. overnight and then with secondary antibody conjugated with horse radish peroxidase at room temperature for 2 hrs. The signals were detected by western blot chemiluminescence reagent plus (New England Nuclear Life Science Products, Boston, Mass.).
(§2) The efficacy of the combination treatment of M4N with three anticancer drugs, etoposide, rapamycin, and UCN-01 to induce cell death was examined for LNCaP human prostate cancer cells with TUNEL assay. We chose these anticancer drugs trying to diversify the mechanisms in which the anticancer drugs work (43-45). […] Additionally the effect of caspase-3 and 7 inhibitor, zDEVD-fmk on the cell death induced by the combination treatment was examined (FIG. 1E).

[2] = tested on: caspase-3 and 9; test: Western blotting of cleaved caspase-3 and 9 in LNCaP cells; type: cell-based, human; conditions: 17 hrs, M4N 80 μM, etoposide 10 μM, rapamycin 10 μM, UCN-01 2 μM
Experimental: as §1, §2

[3] = tested on: OC24 human ovarian cancer cells; test: OC24 ovarian cancer-bearing nude mice: survival, ascites fluid, abdominal tumors; type: in vivo, nude mice (nu/nu); conditions: for survival rate at 45 days after treatment: OC24 tumor-bearing nude mice, i.v. 1 mg M4N and/or 88.4 μg UCN-01 per shot; for Tumor Weight: abdominal tumors of individual OC24 tumor-bearing mice; for Tumor Weight / Weight of the Ascites Fluid: at the time of death; for Weight of the Ascites Fluid: individual OC24 tumor-bearing mice, data compiled at 45 days after tumor inoculation
Experimental: (§3) T-cell deficient male nude mice (nu/nu) were obtained from Charles River Laboratories (Wilmington, Mass.). […] For drug combinations (M4N/etoposide, M4N/rapamycin, and M4N/UCN-01), etoposide, rapamycin, or UCN-01 powder was further added to M4N in CPE 25/30 to make a final concentration of M4N (10 mg/ml) respectively with etoposide (4 mg/ml), rapamycin (3.75 mg/ml), or UCN-01 ([…]) in CPE 25/30 formulation. These drugs were intravenously injected into the tail vein of mice at the daily dose of 0.1 ml per mouse. Therefore dosages of each injection were 1 mg/shot (for M4N), 0.4 mg/shot (for etoposide), 0.375 mg/shot (for rapamycin), and 88.4 μg/shot (for UCN-01). The drug injections were performed once every day; beginning at day 3 until day 31 after tumor inoculation for the combination treatment with either etoposide or rapamycin and until day 25 after tumor inoculation for the combination treatment with UCN-01. After this the drugs were injected once a week for etoposide/rapamycin combination treatment and once every three days until day 35 for UCN-01 combination treatment. Protocols used in this study were approved by the Institutional Animal Care and Use Committee at the Johns Hopkins University, Department of Biology.
(§4) OC24 cells growing subconfluently were collected into the tissue culture medium without fetal bovine serum and antibiotics. The cell concentration was adjusted by the same medium. The cell solution containing 5×10^4 cells was injected into the peritoneal cavity of each nude mouse at the day 0. The drug treatment started from day 3. For the estimation of the effect of the drug treatment, the volume of ascites fluids and of abdominal tumors was measured.
Next we examined if this combination treatment could improve the anticancer efficacy of M4N in animal experiments. In this experiment we used OC24 ovarian cancer-bearing nude mice as a model system. OC24 cells are very aggressive cancers and have the ability to kill essentially all the mice when only ten thousand cancer cells are inoculated intraperitoneally into a mouse. […] All the mice without any treatments died in less than 26 days after the tumor inoculation. Meanwhile certain percentages of the mice survived in the all treatment groups (M4N alone, UCN-01 alone, or M4N/UCN-01 combination) beyond 45 days after treatment (the time of preparation of the current manuscript). The survival rate at 45 days after treatment was 33%, 20%, and 42% for M4N alone, UCN-01 alone, or M4N/UCN-01 combination group respectively.
To further evaluate the anticancer efficacy of M4N/UCN-01 combination treatment, we next measured the volume of the ascites fluid and that of abdominal tumors. The ascites fluid was collected from the peritoneal cavity at the time of death of tumor-bearing mice. Abdominal tumors are usually located in the vicinity of the area where the tumors were inoculated by the needle. […] The data was compiled at 45 days after tumor inoculation. Therefore there were still several mice who still survived from tumor burden.

[4] = tested on: caspase-7; test: Enzymatic assay for caspase-7 in extracts of treated LNCaP cells; type: cell-based, human; conditions: extracts of LNCaP cells treated for 13 hrs
Experimental: The enzymatic assay specific for caspase-7 was performed using a CaspSELECT caspase-7 immunoassay kit (BioVision, Mountain View, Calif.). This assay is based on the […] assay with DEVD-afc. Since DEVD-afc can be a substrate for either caspase-3 or 7, only caspase-7 is selected from cell extracts by anti-caspase-7 antibody which is coated on microtiter plates. Briefly the microtiter plates were coated with anti-caspase-7 antibody overnight at 4 C and blocked with a blocking solution for 30 minutes at room temperature. The cell extracts were applied to the microtiter plates. After washing the microtiter plates, the substrate […] was added to the plates and incubated for about three hours. The fluorescence was measured by a microtiter plate fluorescence reader Infinite 200 (Tecan, Switzerland).
as §2

[5] = Body weight change in OC24 tumor-bearing mice; type: in vivo, nude mice (nu/nu); conditions: individual mice
Experimental: as §3, §4
Once the ascites fluid starts to accumulate in the peritoneal cavity, it sometimes constitutes a significant portion of the body weight.
The increase of the body weight of deceased mice at the time of the death over the initial weight was 37.8% (SD=18.9%, N=19) while the increase of the body weight of alive mice at days after tumor inoculation over the initial weight was 9.5% (SD=7.5%, N=6). The difference of two groups is statistically significant by t-test (0.2%). […] Therefore the body weight change can be used as an indicator to estimate the volume of ascites and thus overall condition of the mice. […] The body weight increased slightly after day 26. However it hasn't reached the peak weight achieved at day 22 (30.5 g). […] The pictures show the apparent decrease of the volume of abdominal area from day 22 to day 29 through day 26. This almost certainly indicated the reduction of ascites fluid. […] The observations depicted in FIGS. 8 B and 8C indicate that the combination treatment of M4N with UCN-01 can suppress tumor burden even after the tumor size has already reached to a certain extent. Discussion

CN[C@@H]1C[C@H]2O[C@@](C)([C@@H]1OC)n1c3ccccc3c3c4c(c5c6ccccc6n2c5c31)C(=O)N[C@H]4O [UCN-01, 7-hydroxystaurosporine]
caspase-7 cleavage products (20 and 34 kDa) [1]: great amount | expression of cleaved caspase-3 and 9 [2]: great expression | survival rate at 45 days after treatment [3]: 20% | Tumor Weight [3]: No Tumor (2×) and 360.5 mg and 87 mg | Weight of the Ascites Fluid [3]: 7.4 g and 15 g and Living and 14.3 g and 2.9 g | caspase-7 activation (enzymatic activity) [4]: to some extent | Body weight ([5]; Day No. 0 (10-Dec)): 22.8 grams and 22.1 grams and 23.4 grams and 21.6 grams and 19.6 grams and 20.6 grams | Body weight ([5]; Day No. 2 (12-Dec)): 22.6 grams (2×) and 18.3 grams and 20.8 grams | Body weight ([5]; Day No. 3 (13-Dec)): 23.4 grams and 21.8 grams and 35.7 grams and 30.5 grams and 22.9 grams and 21.9 Died due to injection & not the tumor (28th Dec) grams | Body weight ([5]; Day No. 8 (18-Dec)): 39.5 grams and 35.9 grams and 26.2 grams | Body weight ([5]; Day No. 12 (22-Dec)): 24.4 grams and 30.7 grams and 38.4 (6th Jan) grams and 27.3 grams | Body weight ([5]; Day No. 22 (1-Jan)): 24.8 grams and 29.5 grams | Body weight ([5]; Day No. 26 (5-Jan)): 25.5 grams | Body weight ([5]; Day No. 29 (8-Jan)): 27.9 grams | Body weight ([5]; Day No. 32 (11-Jan)): 27.6 grams | Body weight ([5]; Day No. 33 (12-Jan)): 27.4 grams | Body weight ([5]; Day No. 34 (13-Jan)): 27.5 grams | Body weight ([5]; Day No. 35 (14-Jan)): 26.5 grams | Body weight ([5]; Day No. 36 (15-Jan)): 27.2 grams | Body weight ([5]; Day No. 37 (16-Jan)): 27.3 grams | Body weight ([5]; Day No. 38 (17-Jan)): 27.1 grams | Body weight ([5]; Day No. 39 (18-Jan)): 27.4 grams | Body weight ([5]; Day No. 40 (19-Jan)): 27.4 grams | Body weight ([5]; Day No. 41 (20-Jan)): 27.8 grams | Body weight ([5]; Day No. 42 (21-Jan)): 26.7 grams | Body weight ([5]; column head Day No. 18 (28-Dec)): 22.5 grams

COc1ccc(C[C@@H](C)[C@@H](C)Cc2ccc(OC)c(OC)c2)cc1OC [M4N, Tetra-O-methyl nordihyroguaiaretic acid]
caspase-7 cleavage products (20 and 34 kDa) [1]: small amount | expression of cleaved caspase-3 and 9 [2]: didn't induce the cleavage | survival rate at 45 days after treatment [3]: 33% | Tumor Weight [3]: 101.3 mg and <100 mg and 360.5 mg and 69 mg | Weight of the Ascites Fluid [3]: 4.4 g and Living (2×) and 7.8 g and 5.8 g and 16.1 g | caspase-7 activation (enzymatic activity) [4]: only a small amount | Body weight ([5]; Day No. 0 (10-Dec)): 24.1 grams and 22.9 grams and 23.5 grams and 22.3 grams and 20 grams and 21.4 grams | Body weight ([5]; Day No. 2 (12-Dec)): 22.3 grams and 20.8 grams and 22.9 grams and 21.5 grams and 19.1 grams and 20.9 grams | Body weight ([5]; Day No. 3 (13-Dec)): 22.8 grams and 21.2 grams and 23.4 grams and 20.9 grams and 20.2 grams and 20.5 grams | Body weight ([5]; Day No. 8 (18-Dec)): 30.1 grams and 25.8 (31st Dec) grams | Body weight ([5]; Day No. 12 (22-Dec)): 23.9 grams and 21.9 grams and 27.7 grams (2×) and 29.8 (Euthanized on 1st Jan) grams | Body weight ([5]; Day No. 22 (1-Jan)): 23.2 grams and 21.5 grams and 28 grams and 38.8 grams | Body weight ([5]; Day No. 26 (5-Jan)): 24.1 grams and 22.5 grams and 28.1 grams | Body weight ([5]; Day No. 29 (8-Jan)): 26.2 grams and 22.7 grams | Body weight ([5]; Day No. 32 (11-Jan)): 25.5 grams and 22.5 grams | Body weight ([5]; Day No. 33 (12-Jan)): 25.3 grams and 23.1 grams | Body weight ([5]; Day No. 34 (13-Jan)): 25.3 grams and 22.9 grams | Body weight ([5]; Day No. 35 (14-Jan)): 24.8 grams and 22 grams | Body weight ([5]; Day No. 36 (15-Jan)): 25.7 grams and 22.4 grams | Body weight ([5]; Day No. 37 (16-Jan)): 25.8 grams and 22.6 grams | Body weight ([5]; Day No. 38 (17-Jan)): 25.9 grams and 22.9 grams | Body weight ([5]; Day No. 39 (18-Jan)): 26.3 grams and 22.7 grams | Body weight ([5]; Day No. 40 (19-Jan)): 26.4 grams and 22.9 grams | Body weight ([5]; Day No. 41 (20-Jan)): 26.4 grams and 23.1 grams | Body weight ([5]; Day No. 42 (21-Jan)): 25.3 grams and 23.2 grams | Body weight ([5]; column head Day No. 25 (4-Jan)): 37.5 grams | Body weight ([5]; column head Day No. 28 (7-Jan)): 27.9 grams
